The target in this assay is T1, P2X4 (Homo sapiens, UniProt Q99571).
T1 sequence (Q99571 1-388): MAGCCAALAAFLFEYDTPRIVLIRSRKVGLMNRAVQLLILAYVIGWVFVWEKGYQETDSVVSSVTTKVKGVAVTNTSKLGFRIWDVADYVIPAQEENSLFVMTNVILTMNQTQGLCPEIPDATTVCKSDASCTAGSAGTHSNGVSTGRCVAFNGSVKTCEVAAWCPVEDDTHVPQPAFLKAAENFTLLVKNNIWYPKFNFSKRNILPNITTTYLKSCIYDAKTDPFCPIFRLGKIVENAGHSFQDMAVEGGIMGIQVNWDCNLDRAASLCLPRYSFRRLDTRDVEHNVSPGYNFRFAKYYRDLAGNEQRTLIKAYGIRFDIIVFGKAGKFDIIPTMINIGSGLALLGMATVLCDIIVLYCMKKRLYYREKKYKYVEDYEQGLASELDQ
The experiment in a line: Assay B: human P2X4 receptor cell line, mitochondrial photina luminescence (agonist Bz-ATP at EC50). In kind it is cell-based. The arrangement: host or cells: HEK 293 (recombinant, constitutively expressing; with mitochondrial photina in Assay B). The settings on record: HEK human P2X4 cell line, photina luminescence, agonist Bz-ATP at EC50, average; for Emax: read-out: human P2X4 Assay B avg Efficacy. The protocol: The identification of agonists and antagonists of the P2X4 receptor from humans and […] also the quantification of the activity of the compounds of the invention was performed by use of recombinant cell lines. […] The test cell lines constitutively express the mouse or human P2X4 receptors. Stimulation of the receptors with an agonist leads to a conformational change of P2X4 and influx of extracellular calcium ions through the ion channel. The cytoplasmatic calcium transient is detected via the calcium sensitive dye Fluo8 for the mouse P2×4 cell line or in case of the human P2×4 cell line a stably expressed calcium-sensitive photoprotein, mitochondrial photina, which, after reconstitution with the cofactor coelenterazine, emits light in dependence of calcium binding [Bovolenta S, Foti M, Lohmer S, Corazza S., J Biomol Screen. […] The strength of Fluo8 fluorescence signal or photina luminescence signal corresponds to the level of receptor activation. An inhibitor would decrease the signal depending on its potency and concentration.
The resulting light signal is measured immediately in the luminometer.

Structures are written as SMILES.

The text below walks through data of US20180338980A1, “AROMATIC SULFONAMIDE DERIVATIVES” (BAYER PHARMA AKTIENGESELLSCHAFT, priority 2015, published 2018).

What is called IC50 is the concentration that gives 50% inhibition.

As to `CC(Oc1ccc(NC(=O)Cc2ccccc2Cl)cc1S(N)(=O)=O)c1ccccc1` (single isomer, unassigned) [Example 148B, 2-(2-Chlorophenyl)-N-[4-(1-phenylethoxy)-3-sulfamoylphenyl]acetamide], the 50% inhibitory concentration (IC50) is 519 nM and the “human P2X4 Assay B avg Efficacy” value is 64%.
In the case of `N#Cc1cc(Cl)cc(Oc2ccc(NC(=O)Cc3ccccc3Cl)cc2S(N)(=O)=O)c1` [Example 001, N-[4-(3-Chloro-5-cyanophenoxy)-3-sulfamoylphenyl]-2-(2-chlorophenyl)acetamide], the 50% inhibitory concentration (IC50) is 7720 nM and the Emax is 61%.
For the compound `NS(=O)(=O)c1cc(NC(=O)Cc2ccccc2Cl)ccc1Oc1ccnc(Cl)c1` [Example 003, 2-(2-Chlorophenyl)-N-{4-[(2-chloropyridin-4-yl)oxy]-3-sulfamoylphenyl}acetamide], the IC50 was determined as 6340 nM and the Emax came out at 50%.
The corresponding values for `NS(=O)(=O)c1cc(NC(=O)Cc2ccccc2Cl)ccc1Oc1cncnc1` [Example 019, 2-(2-Chlorophenyl)-N-[4-(pyrimidin-5-yloxy)-3-sulfamoylphenyl]acetamide] are 1420 nM and 80%.
In the case of `NS(=O)(=O)c1cc(NC(=O)Cc2ccccc2Cl)ccc1Oc1cccc(-c2nnn[nH]2)c1` [Example 021, 2-(2-Chlorophenyl)-N-{3-sulfamoyl-4-[3-(1H-tetrazol-5-yl)phenoxy]phenyl}acetamide], the half-inhibitory concentration (IC50) came out at 3860 nM and the Emax came to 60%.
In the same order, the values of `COc1ccc(Oc2ccc(NC(=O)Cc3ccccc3Cl)cc2S(N)(=O)=O)cc1` [Example 023, 2-(2-Chlorophenyl)-N-[4-(4-methoxyphenoxy)-3-sulfamoylphenyl]acetamide] are 166 nM and 73%.
For the compound `N#Cc1ccc(Oc2ccc(NC(=O)Cc3ccccc3Cl)cc2S(N)(=O)=O)cc1C#N` [Example 025, 2-(2-Chlorophenyl)-N-[4-(3,4-dicyanophenoxy)-3-sulfamoylphenyl]acetamide], the IC50 was > 16000 nM and the Emax came to 50%.
The corresponding values for `NS(=O)(=O)c1cc(NC(=O)Cc2ccccc2Cl)ccc1Oc1cccc(N2CCN(C(=O)Cc3ccccc3Cl)CC2)c1` [Example 027, 2-(2-Chlorophenyl)-N-[4-(3-{4-[(2-chlorophenyl)acetyl]piperazin-1-yl}phenoxy)-3-sulfamoylphenyl]acetamide] are 776 nM and 99%.
Consider `N#Cc1ccc(Oc2ccc(NC(=O)Cc3ccccc3Cl)cc2S(N)(=O)=O)cc1` [Example 030, 2-(2-Chlorophenyl)-N-[(4-cyanophenoxy)-3-sulfamoylphenyl]acetamide], for which the IC50 amounted to 5080 nM and the Emax stood at 99%.
On to `N#Cc1cc(C#N)cc(Oc2ccc(NC(=O)Cc3ccccc3Cl)cc2S(N)(=O)=O)c1` [Example 033, 2-(2-Chlorophenyl)-N-[4-(3,5-dicyanophenoxy)-3-sulfamoylphenyl]acetamide], for which the 50% inhibitory concentration (IC50) stood at 6750 nM and the Emax was 75%.
The corresponding values for `COc1ccc(C#N)cc1Oc1ccc(NC(=O)Cc2ccccc2Cl)cc1S(N)(=O)=O` [Example 034, 2-(2-Chlorophenyl)-N-[4-(5-cyano-2-methoxyphenoxy)-3-sulfamoylphenyl]acetamide] are 172 nM and 57%.
Turning to `NS(=O)(=O)c1cc(NC(=O)Cc2ccccc2Cl)ccc1Oc1cc(Cl)cnc1Cl` [Example 035, 2-(2-Chlorophenyl)-N-{4-[(2,5-dichloropyridin-3-yl)oxy]-3-sulfamoylphenyl}acetamide], the half-maximal inhibitory concentration (IC50) stood at 3570 nM and the Emax was 60%.
As to `NS(=O)(=O)c1cc(NC(=O)Cc2ccccc2Cl)ccc1Oc1ncccc1Cl` [Example 038, 2-(2-chlorophenyl)-N-{4-[(3-chloropyridin-2-yl)oxy]-3-sulfamoylphenyl}acetamide], the IC50 was found to be 777 nM and the Emax was 74%.
In the case of `NS(=O)(=O)c1cc(NC(=O)Cc2ccccc2Cl)ccc1Oc1cccc(Cl)n1` [Example 040, 2-(2-Chlorophenyl)-N-{4-[(6-chloropyridin-2-yl)oxy]-3-sulfamoylphenyl}acetamide], the half-maximal inhibitory concentration (IC50) worked out at 238 nM and the Emax came out at 64%.
As to `CN1CCN=C1c1cccc(Oc2ccc(NC(=O)Cc3ccccc3Cl)cc2S(N)(=O)=O)c1` [Example 041, 2-(2-Chlorophenyl)-N-{4-[3-(1-methyl-4,5-dihydro-1H-imidazol-2-yl)phenoxy]-3-sulfamoylphenyl}acetamide], the half-inhibitory concentration (IC50) worked out at 3380 nM and the Emax was determined as 72%.
Turning to `NS(=O)(=O)c1cc(NC(=O)Cc2ccccc2Cl)ccc1Oc1ccc(N2CCOCC2)cc1` [Example 044, 2-(2-Chlorophenyl)-N-{4-[4-(morpholin-4-yl)phenoxy]-3-sulfamoylphenyl}acetamide], the half-inhibitory concentration (IC50) amounted to 2630 nM and the Emax was 69%.
As to `Cc1ccc(C#N)cc1Oc1ccc(NC(=O)Cc2ccccc2Cl)cc1S(N)(=O)=O` [Example 045, 2-(2-Chlorophenyl)-N-[4-(5-cyano-2-methylphenoxy)-3-sulfamoylphenyl]acetamide], the 50% inhibitory concentration (IC50) amounted to 176 nM and the Emax was found to be 71%.
The corresponding values for `Cc1c(C#N)cccc1Oc1ccc(NC(=O)Cc2ccccc2Cl)cc1S(N)(=O)=O` [Example 046, 2-(2-Chlorophenyl)-N-[4-(3-cyano-2-methylphenoxy)-3-sulfamoylphenyl]acetamide] are 841 nM and 75%.
The corresponding values for `N#Cc1ncc(Cl)cc1Oc1ccc(NC(=O)Cc2ccccc2Cl)cc1S(N)(=O)=O` [Example 048, N-{4-[(5-Chloro-2-cyanopyridin-3-yl)oxy]-3-sulfamoylphenyl}-2-(2-chlorophenyl)acetamide] are 11600 nM and 73%.
For `NS(=O)(=O)c1cc(NC(=O)Cc2ccccc2Cl)ccc1Oc1cccc(N2CCCCC2)c1` [Example 049, 2-(2-Chlorophenyl)-N-{4-[3-(piperidin-1-yl)phenoxy]-3-sulfamoylphenyl}acetamide], the IC50 stood at 773 nM and the Emax stood at 92%.
Take `N#CC1(COc2ccc(NC(=O)Cc3ccccc3Cl)cc2S(N)(=O)=O)CCOCC1` [Example 055, 2-(2-Chlorophenyl)-N-{4-[(4-cyanotetrahydro-2H-pyran-4-yl)methoxy]-3-sulfamoylphenyl}acetamide]: the IC50 was found to be 1160 nM and the Emax turned out to be 71%.
In the same order, the values of `NS(=O)(=O)c1cc(NC(=O)Cc2ccccc2Cl)ccc1Oc1cnc(C(F)(F)F)nc1` [Example 056, 2-(2-Chlorophenyl)-N-(3-sulfamoyl-4-{[2-(trifluoromethyl)pyrimidin-5-yl]oxy}phenyl)acetamide] are > 50000 nM and 15%.
In the same order, the values of `CC(C)c1ncc(Oc2ccc(NC(=O)Cc3ccccc3Cl)cc2S(N)(=O)=O)cn1` [Example 057, 2-(2-Chlorophenyl)-N-{4-[(2-isopropylpyrimidin-5-yl)oxy]-3-sulfamoylphenyl}acetamide] are 1590 nM and 65%.
Consider `Cc1nc(C2CC2)ncc1Oc1ccc(NC(=O)Cc2ccccc2Cl)cc1S(N)(=O)=O` [Example 058, 2-(2-Chlorophenyl)-N-{4-[(2-cyclopropyl-4-methylpyrimidin-5-yl)oxy]-3-sulfamoylphenyl}acetamide], for which the IC50 was determined as 3180 nM and the Emax is 73%.
With `NS(=O)(=O)c1cc(NC(=O)Cc2ccccc2Cl)ccc1Oc1ccc(Br)cc1` [Example 060, N-[4-(4-Bromophenoxy)-3-sulfamoylphenyl]-2-(2-chlorophenyl)acetamide], the Emax came out at 34%.
`NS(=O)(=O)c1cc(NC(=O)Cc2ccccc2Cl)ccc1Oc1cccc(C(=O)N2CCCCC2)c1` [Example 067, 2-(2-chlorophenyl)-N-{4-[3-(piperidin-1-ylcarbonyl)phenoxy]-3-sulfamoylphenyl}acetamide]: the concentration for half-maximal inhibition (IC50) turned out to be 241 nM and the Emax was 72%.
The corresponding values for `N#Cc1cc(F)cc(Oc2ccc(NC(=O)Cc3ccccc3Cl)cc2S(N)(=O)=O)c1` [Example 069, 2-(2-chlorophenyl)-N-[4-(3-cyano-5-fluorophenoxy)-3-sulfamoylphenyl]acetamide] are 2680 nM and 71%.
In the same order, the values of `COc1ccccc1Oc1ccc(NC(=O)Cc2ccccc2)cc1S(N)(=O)=O` [Example 070, N-[4-(2-Methoxyphenoxy)-3-sulfamoylphenyl]-2-phenylacetamide] are 1100 nM and 70%.
In the same order, the values of `COc1ccccc1Oc1ccc(NC(=O)Cc2ccc(C(F)(F)F)cc2)cc1S(N)(=O)=O` [Example 071, N-[4-(2-Methoxyphenoxy)-3-sulfamoylphenyl]-2-[4-(trifluoromethyl)phenyl]acetamide] are 2090 nM and 73%.
